According to PubChem BioAssay (NCI):
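Step 1: Grow cells in 96-well plates. Step 2: Expose to compound for 48 hours at 5 concentrations. Step 3: Interpolate endpoints linearly; if unreached, use highest concentration. TGI: total growth inhibition.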

Tests used:
Assay in all cases: NCI tumour cell line growth inhibition, 48 h
RXF 393 renal = test system: RXF 393 renal
DU-145 prostate = test system: DU-145 prostate
RPMI-8226 leukemia = test system: RPMI-8226 leukemia
SF-539 CNS = test system: SF-539 CNS
SR leukemia = test system: SR leukemia
HOP-62 NSCLC = test system: HOP-62 NSCLC
OVCAR-8 ovarian = test system: OVCAR-8 ovarian
TK-10 renal = test system: TK-10 renal
OVCAR-3 ovarian = test system: OVCAR-3 ovarian
SF-295 CNS = test system: SF-295 CNS
UO-31 renal = test system: UO-31 renal
UACC-62 melanoma = test system: UACC-62 melanoma
M14 melanoma = test system: M14 melanoma
MOLT-4 leukemia = test system: MOLT-4 leukemia
SK-MEL-2 melanoma = test system: SK-MEL-2 melanoma
SK-MEL-28 melanoma = test system: SK-MEL-28 melanoma
IGROV1 ovarian = test system: IGROV1 ovarian
ACHN renal = test system: ACHN renal
CAKI-1 renal = test system: CAKI-1 renal
MALME-3M melanoma = test system: MALME-3M melanoma
BT-549 breast = test system: BT-549 breast
SN12C renal = test system: SN12C renal
NCI/ADR-RES ovarian = test system: NCI/ADR-RES ovarian
MDA-N = test system: MDA-N
SW-620 colon = test system: SW-620 colon
HT29 colon = test system: HT29 colon
HS 578T breast = test system: HS 578T breast
NCI-H460 lung = test system: NCI-H460 lung
T-47D breast = test system: T-47D breast
HCT-15 colon = test system: HCT-15 colon
SK-OV-3 ovarian = test system: SK-OV-3 ovarian
NCI-H226 lung = test system: NCI-H226 lung
NCI-H23 lung = test system: NCI-H23 lung
SK-MEL-5 melanoma = test system: SK-MEL-5 melanoma
U251 CNS = test system: U251 CNS
COLO 205 colon = test system: COLO 205 colon
KM12 colon = test system: KM12 colon
MCF7 breast = test system: MCF7 breast
OVCAR-4 ovarian = test system: OVCAR-4 ovarian
SF-268 CNS = test system: SF-268 CNS
786-0 renal = test system: 786-0 renal
LOX IMVI melanoma = test system: LOX IMVI melanoma
OVCAR-5 ovarian = test system: OVCAR-5 ovarian
MDA-MB-231 breast = test system: MDA-MB-231 breast
EKVX NSCLC = test system: EKVX NSCLC
PC-3 prostate = test system: PC-3 prostate
A549 NSCLC = test system: A549 NSCLC
MDA-MB-435 = test system: MDA-MB-435
SNB-75 CNS = test system: SNB-75 CNS
HCT-116 colon = test system: HCT-116 colon
HOP-92 NSCLC = test system: HOP-92 NSCLC
UACC-257 melanoma = test system: UACC-257 melanoma
A498 renal = test system: A498 renal
SNB-19 CNS = test system: SNB-19 CNS
NCI-H522 lung = test system: NCI-H522 lung
K-562 leukemia = test system: K-562 leukemia
HCC-2998 colon = test system: HCC-2998 colon
CCRF-CEM leukemia = test system: CCRF-CEM leukemia

Work on `O=C(O)c1ccccc1CN1CCCC(C(=O)O)C1` (centres undefined) yielded a TGI (RXF 393 renal) of over 100 µM, a TGI (DU-145 prostate) of over 100 µM and a TGI (RPMI-8226 leukemia) of over 100 µM. For the same molecule, the TGI (SF-539 CNS) was over 100 µM, the TGI (SR leukemia) was over 100 µM and the TGI (HOP-62 NSCLC) was over 100 µM. The TGI (OVCAR-8 ovarian) was over 100 µM, the TGI (TK-10 renal) was over 100 µM and the TGI (OVCAR-3 ovarian) was over 100 µM. It also gave a TGI (SF-295 CNS) of over 100 µM, a TGI (UO-31 renal) of over 100 µM and a TGI (UACC-62 melanoma) of over 100 µM. It also gave a TGI (M14 melanoma) of over 100 µM, a TGI (MOLT-4 leukemia) of over 100 µM and a TGI (SK-MEL-2 melanoma) of over 100 µM. It also gave a TGI (SK-MEL-28 melanoma) of over 100 µM, a TGI (IGROV1 ovarian) of over 100 µM and a TGI (ACHN renal) of over 100 µM. The TGI (CAKI-1 renal) was over 100 µM, the TGI (MALME-3M melanoma) was over 100 µM and the TGI (BT-549 breast) was over 100 µM. For the same molecule, the TGI (SN12C renal) was over 100 µM, the TGI (NCI/ADR-RES ovarian) was over 100 µM and the TGI (MDA-N) was over 100 µM. The TGI (SW-620 colon) was over 100 µM, the TGI (HT29 colon) was over 100 µM and the TGI (HS 578T breast) was over 100 µM. For the same molecule, the TGI (NCI-H460 lung) was over 100 µM, the TGI (T-47D breast) was over 100 µM and the TGI (HCT-15 colon) was over 100 µM. For the same molecule, the TGI (SK-OV-3 ovarian) was over 100 µM, the TGI (NCI-H226 lung) was over 100 µM and the TGI (NCI-H23 lung) was over 100 µM. The TGI (SK-MEL-5 melanoma) was over 100 µM, the TGI (U251 CNS) was over 100 µM and the TGI (COLO 205 colon) was over 100 µM. For the same molecule, the TGI (KM12 colon) was over 100 µM, the TGI (MCF7 breast) was over 100 µM and the TGI (OVCAR-4 ovarian) was over 100 µM. The TGI (SF-268 CNS) was over 100 µM, the TGI (786-0 renal) was over 100 µM and the TGI (LOX IMVI melanoma) was over 100 µM. For the same molecule, the TGI (OVCAR-5 ovarian) was over 100 µM, the TGI (MDA-MB-231 breast) was over 100 µM and the TGI (EKVX NSCLC) was over 100 µM. The TGI (PC-3 prostate) was over 100 µM, the TGI (A549 NSCLC) was over 100 µM and the TGI (MDA-MB-435) was over 100 µM. The TGI (SNB-75 CNS) was over 100 µM, the TGI (HCT-116 colon) was over 100 µM and the TGI (HOP-92 NSCLC) was over 100 µM. For the same molecule, the TGI (UACC-257 melanoma) was over 100 µM, the TGI (A498 renal) was over 100 µM and the TGI (SNB-19 CNS) was over 100 µM. For the same molecule, the TGI (NCI-H522 lung) was over 100 µM and the TGI (K-562 leukemia) was over 100 µM.

Molecule `COc1cc2nc3n(c2cc1OC)C(O)c1c(Cl)nc(SC)nc1S3` (centres undefined) has a TGI (RXF 393 renal) of 14.8 µM, a TGI (DU-145 prostate) of 24.1 µM and a TGI (RPMI-8226 leukemia) of over 37 µM. The TGI (SF-539 CNS) was 5.22 µM, the TGI (SR leukemia) was over 100 µM and the TGI (HOP-62 NSCLC) was 26.1 µM. It also gave a TGI (OVCAR-8 ovarian) of 7.06 µM, a TGI (TK-10 renal) of over 74 µM and a TGI (OVCAR-3 ovarian) of 13.3 µM. It also gave a TGI (SF-295 CNS) of over 94.5 µM, a TGI (UO-31 renal) of 13.2 µM and a TGI (UACC-62 melanoma) of 25.2 µM. The TGI (M14 melanoma) was 21.8 µM, the TGI (MOLT-4 leukemia) was over 48.9 µM and the TGI (SK-MEL-2 melanoma) was over 27.2 µM. For the same molecule, the TGI (SK-MEL-28 melanoma) was 23.2 µM, the TGI (IGROV1 ovarian) was 13 µM and the TGI (ACHN renal) was 42.2 µM. The TGI (CAKI-1 renal) was over 45.4 µM, the TGI (MALME-3M melanoma) was 8.8 µM and the TGI (BT-549 breast) was 9.37 µM. It also gave a TGI (SN12C renal) of 21 µM, a TGI (NCI/ADR-RES ovarian) of 18.7 µM and a TGI (MDA-N) of 24 µM. It also gave a TGI (SW-620 colon) of 22.8 µM, a TGI (HT29 colon) of over 100 µM and a TGI (HS 578T breast) of over 100 µM. It also gave a TGI (NCI-H460 lung) of 19.6 µM, a TGI (T-47D breast) of over 59 µM and a TGI (HCT-15 colon) of 12.3 µM. The TGI (SK-OV-3 ovarian) was 30.8 µM, the TGI (NCI-H226 lung) was 28 µM and the TGI (NCI-H23 lung) was 18.3 µM. The TGI (SK-MEL-5 melanoma) was 8.94 µM, the TGI (U251 CNS) was 26.3 µM and the TGI (COLO 205 colon) was 22.9 µM. It also gave a TGI (KM12 colon) of over 100 µM, a TGI (MCF7 breast) of 15 µM and a TGI (OVCAR-4 ovarian) of over 39 µM. It also gave a TGI (SF-268 CNS) of over 100 µM, a TGI (786-0 renal) of 7.85 µM and a TGI (LOX IMVI melanoma) of 5.07 µM. For the same molecule, the TGI (OVCAR-5 ovarian) was over 95.1 µM, the TGI (MDA-MB-231 breast) was over 81 µM and the TGI (EKVX NSCLC) was 40.6 µM. It also gave a TGI (PC-3 prostate) of over 49.8 µM, a TGI (A549 NSCLC) of 48 µM and a TGI (HCC-2998 colon) of 20.2 µM. It also gave a TGI (MDA-MB-435) of over 64.3 µM, a TGI (SNB-75 CNS) of over 68 µM and a TGI (HCT-116 colon) of 10.3 µM. The TGI (HOP-92 NSCLC) was 68.3 µM, the TGI (UACC-257 melanoma) was 52.5 µM and the TGI (A498 renal) was 34.9 µM. It also gave a TGI (SNB-19 CNS) of over 37.7 µM, a TGI (NCI-H522 lung) of 4.36 µM and a TGI (CCRF-CEM leukemia) of 3.91 µM. It also gave a TGI (K-562 leukemia) of over 100 µM.
